In patent US20100119502A1, “THERAPY REGIMENS, DOSING REGIMENS AND STABLE MEDICAMENTS FOR THE TREATMENT OF POMPE DISEASE” (AMICUS THERAPEUTICS, INC., priority 2008, published 2010):
“Also recorded” adds a separate entry of the source. Structures can show the parent of a compound that is named as a salt.

Columns and labels:
GAA KO mouse = test: GAA enzyme activity in heart and diaphragm of GAA KO mouse (rhGAA uptake); format: in vivo; details: rhGAA co-administered with 1-DNJ-HCl vs ERT monotherapy
Experimental: Heart and Diaphragm tissue homogenates were harvested and rhGAA activity was measured using the fluorogenic substrate (4-MUG).

rhGAA (Myozyme™) = biological target: T1, rhGAA (Myozyme™) (Homo sapiens, UniProt P10253); test: rhGAA enzyme inactivation in citrate anti-coagulated whole blood at 37° C.; format: in vitro ADME; details: for rhGAA enzyme inactivated: whole blood 37° C., no 1-DNJ-HCl
T1 construct: purchased Genzyme Corp; host or cells: Chinese hamster ovary cell line
Experimental: Aliquots were collected at 0, 2, 4, 8 and 24 hrs and centrifuged to obtain plasma. These plasma samples were then diluted in potassium acetate buffer (pH 4.0) and assayed for GAA activity using the 4-methylumbeliferyl-α-glucose (4-MUG) fluorogenic substrate. The measured GAA activity for individual samples at each time point was normalized to the 0 hr and expressed as % of initial activity. Data from 4 independent experiments were analyzed to obtain the mean (and standard deviation) and plotted versus time to assess the loss of enzyme activity over this time course.
Aliquots were collected at 0, 3 and 6 hrs and centrifuged to obtain plasma. These plasma samples were then diluted in potassium acetate buffer (pH 4.0) and assayed for GAA activity using the 4-methylumbeliferyl-a-glucose (4-MUG) fluorogenic substrate. The measured GAA activity for individual samples at each time point was normalized to the 0 hr and expressed as % of initial activity.
Based on human plasma PK data, these concentrations are readily obtainable in the clinic.

GAA KO mice [1] = test: Tissue glycogen reduction in GAA KO mice; format: in vivo; details: Myozyme co-administered with 30 mg/kg 1-DNJ-HCl
Experimental: To prevent anaphylaxis, before the third and fourth Myozyme™ injection, diphenhydramine (10 mg/kg intraperitoneally) was administered 10 min before Myozyme™ injection. […] Mice were euthanized 14 days after the last Myozyme™ administration. Glycogen levels in heart, diaphragm, soleus, and quadriceps were then measured. […] Supernatants were heat denatured (99° C. for 10 min) to remove endogenous amyloglucosidase activity. […] The reaction was stopped by inactivation at 100° C. for 10 min. […] Simultaneously, the amount of protein was determined in tissue homogenates using the Micro BCA Protein Assay (Pierce, Rockford, Ill.) following the manufacturer's instructions. The glycogen content of each sample was normalized to protein, and data were finally expressed as micrograms of glycogen per milligram of protein (μg/mg protein).

GAA KO mice [2] = test: In vivo uptake of Myozyme in GAA KO mice with and without oral 1-DNJ-HCl (4-MUG tissue GAA activity)
From the text: Enzymatic activity as determined using a 4-MUG fluorogenic substrate assay.

[3] = biological target: T2, recombinant human GAA (Myozyme®, Genzyme Corp.) (Homo sapiens, UniProt P10253); test: SYPRO Orange thermal stability assay of rhGAA; format: binding
T2 construct: purchased Genzyme Corp; host or cells: Chinese hamster ovary cell line
From the text: The thermal stability assay utilizes heat to induce protein denaturation, which is monitored using a SYPRO Orange dye that fluoresces upon binding to hydrophobic amino acids (which are not exposed in a folded protein).
FIG. 2B depicts a parallel SYPRO Orange thermal stability experiment to determine if the loss of enzyme activity shown in FIG. 2A, particularly the loss of Myozyme activity at ER pH (7.4), correlates with protein unfolding and denaturation. […]
Denaturation is monitored using a SYPRO Orange dye that fluoresces upon binding to hydrophobic amino acids (which are not exposed in a folded protein).
The thermal stability was performed at pH 7.4 for two formulations, which corresponds to the pH of the ER.
In order to determine if loss of initial enzyme activity is correlated to failure to maintain a proper conformation, a SYPRO Orange thermal stability experiment was performed on the samples above as generally described in Example 1. […] Based on this experiment, the % of GAA folded was estimated and plotted in FIG. 2B. […]

[4] = stored at 2 to 8° C.; cited from earlier work

Compound | rhGAA uptake in the heart and diaphragm (GAA activity) (GAA KO mouse) | stabilizing rhGAA and preventing enzyme inactivation in whole blood (rhGAA (Myozyme™); high 1-DNJ-HCl concentrations (50 and 100 μM)) | rhGAA activity in whole blood (rhGAA (Myozyme™); rhGAA with 50 μM 1-DNJ-HCl, 37° C., up to 24 hrs) | tissue glycogen reduction compared to Myozyme alone (GAA KO mice [1]) | Myozyme tissue uptake (as a measure of GAA activity) with coadministered 1-DNJ-HCl (GAA KO mice [2]; Myozyme 10 mg/kg IV weekly up to 3 weeks plus 10, 100, 1000 mg/kg oral 1-DNJ-HCl) | GAA folding / denaturation (% of GAA folded) ([3]; 37° C. over 24 hours, Myozyme 0.9 μM, pH 7.4, with or without 100 μM 1-DNJ-HCl) | stability of rhGAA (heat required to denature) ([3]; pH 7.4, Myozyme plus 100 μM 1-DNJ-HCl vs Myozyme alone, hydrochloride) | rhGAA enzyme inactivated (rhGAA (Myozyme™); by 4 hrs) | rhGAA enzyme inactivated (rhGAA (Myozyme™); by 8 hrs) [%] | rhGAA enzyme inactivated (rhGAA (Myozyme™); by 24 hrs) [%] | time the product is stable on storage [4] | Myozyme tissue uptake (as a measure of GAA activity) (GAA KO mice [2]; Myozyme 10 mg/kg IV weekly, 7 days post injection) | stability of rhGAA by pH ([3]; Myozyme alone, pH 5.2 vs pH 7.4)
OC[C@H]1NC[C@H](O)[C@@H](O)[C@@H]1O [1-DNJ-HCl, 1-deoxynorjirimycin hydrochloride] | increased | best for stabilizing rhGAA and preventing enzyme inactivation | remained completely active | significantly greater tissue glycogen reduction | dose-dependent increase in Myozyme uptake | can prevent GAA denaturation and loss of enzyme activity | required significantly more heat to denature; also recorded: significantly increased |  |  |  |  |  | 
Myozyme: alglucosidase alfa, human acid α-glucosidase produced by recombinant DNA technology in a Chinese hamster ovary cell line (Genzyme) |  |  |  |  |  |  |  | approximately 40% | ~70 | ~100 | up to 24 hours | declined at 7 days post injection | much more stable at lysosomal pH (5.2) than at ER pH (7.4)
